Test results as given in PubChem BioAssay AID330 (DTP/NCI, 2004).
Toxic doses and inconclusive results are not listed. The calls were made as follows: active = survival T/C of 150% or more; inactive = T/C below 125% in these data.

Tested on: P388 leukemia ip, CD2F1 mice, survival T/C
Experiment: NCI In Vivo Anticancer Drug Screen. Data for tumor model P388 Leukemia (intraperitoneal) in CD2F1 (CDF1) mice
Conditions: endpoint: median survival time, higher = longer survival
How it was run: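 Mice carrying the transplanted tumor received test compound or vehicle. Survival was recorded in each group, and the value is the treated-group measurement divided by that of the vehicle-treated control group.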

Measured: T/C

O=S(=O)(O)c1cc(O)c2c(N=Cc3ccccc3O)c(S(=O)(=O)O)ccc2c1
inactive: dose: 60.0 mg/kg/injection, schedule: Q01DX005 (ip), vehicle: saline with Tween-80 98 % of control | dose: 120.0 mg/kg/injection, schedule: Q01DX005 (ip), vehicle: saline with Tween-80 97 % of control | dose: 240.0 mg/kg/injection, schedule: Q01DX005 (ip), vehicle: saline with Tween-80 95 % of control

Oc1ccc(/C=N/NC(=S)NN2CCOCC2)nc1
inactive: dose: 3.12 mg/kg/injection, schedule: Q01DX009 (ip), vehicle: Klucel (hydroxypropylcellulose) (HPC) 110 % of control | dose: 6.25 mg/kg/injection, schedule: Q01DX009 (ip), vehicle: Klucel (hydroxypropylcellulose) (HPC) 109 % of control | dose: 12.5 mg/kg/injection, schedule: Q01DX009 (ip), vehicle: Klucel (hydroxypropylcellulose) (HPC) 104 % of control | dose: 25.0 mg/kg/injection, schedule: Q01DX009 (ip), vehicle: Klucel (hydroxypropylcellulose) (HPC) 111 % of control

Cc1ccc(-n2c(=S)n(-c3ccccc3C)c3nc4ccccc4nc2/c3=N\Nc2ccc(Cl)cc2)cc1
inactive: dose: 50.0 mg/kg/injection, schedule: Q01DX005 (ip), vehicle: saline with Tween-80 92 % of control | dose: 100.0 mg/kg/injection, schedule: Q01DX005 (ip), vehicle: saline with Tween-80 88 % of control | dose: 200.0 mg/kg/injection, schedule: Q01DX005 (ip), vehicle: saline with Tween-80 95 % of control

CCOC(=O)C(CC)CO (centres undefined)
inactive: dose: 50.0 mg/kg/injection, schedule: Q01DX009 (ip), vehicle: saline 101 % of control | dose: 100.0 mg/kg/injection, schedule: Q01DX009 (ip), vehicle: saline 100 % of control | dose: 200.0 mg/kg/injection, schedule: Q01DX009 (ip), vehicle: saline 101 % of control

CCCCN(CCCC)CCCC(C(C)=O)C(=O)OCC (centres undefined)
inactive: dose: 50.0 mg/kg/injection, schedule: Q01DX005 (ip), vehicle: Klucel (hydroxypropylcellulose) (HPC) 102 % of control | dose: 100.0 mg/kg/injection, schedule: Q01DX005 (ip), vehicle: Klucel (hydroxypropylcellulose) (HPC) 104 % of control

Oc1ccccc1/C=N/Nc1nnnn1-c1ccccc1
inactive: dose: 100.0 mg/kg/injection, schedule: Q01DX001 (ip), vehicle: Klucel (hydroxypropylcellulose) (HPC) 102 % of control | dose: 200.0 mg/kg/injection, schedule: Q01DX001 (ip), vehicle: Klucel (hydroxypropylcellulose) (HPC) 102 % of control | dose: 400.0 mg/kg/injection, schedule: Q01DX001 (ip), vehicle: Klucel (hydroxypropylcellulose) (HPC) 98 % of control

C[As](C)SC1CC(OC(=O)c2ccccc2)C(OC(=O)c2ccccc2)C(COC(=O)c2ccccc2)O1 (centres undefined)
inactive: dose: 50.0 mg/kg/injection, schedule: Q01DX009 (ip), vehicle: saline with Tween-80 100 % of control | dose: 100.0 mg/kg/injection, schedule: Q01DX009 (ip), vehicle: saline with Tween-80 106 % of control | dose: 200.0 mg/kg/injection, schedule: Q01DX009 (ip), vehicle: saline with Tween-80 105 % of control

O=C(CC[N+](=O)[O-])OCC1OC(OC(=O)CC[N+](=O)[O-])C(O)C(O)C1O (centres undefined)
inactive: dose: 12.5 mg/kg/injection, schedule: Q01DX005 (ip), vehicle: water 98 % of control | dose: 25.0 mg/kg/injection, schedule: Q01DX001 (ip), vehicle: saline + alcohol 102 % of control | dose: 25.0 mg/kg/injection, schedule: Q01DX005 (ip), vehicle: water 104 % of control | dose: 50.0 mg/kg/injection, schedule: Q01DX001 (ip), vehicle: saline + alcohol 96 % of control | dose: 50.0 mg/kg/injection, schedule: Q01DX005 (ip), vehicle: water 97 % of control | dose: 100.0 mg/kg/injection, schedule: Q01DX001 (ip), vehicle: saline + alcohol 105 % of control | dose: 100.0 mg/kg/injection, schedule: Q01DX005 (ip), vehicle: water 95 % of control | dose: 200.0 mg/kg/injection, schedule: Q01DX005 (ip), vehicle: water 100 % of control

C=C1C(=O)OC2/C=C(\COC(C)=O)CC/C=C(/COC(=O)C(C)CC)CC(O)C12 (centres undefined) (tested in a mixture with another compound)
inactive: dose: 2.0 mg/kg/injection, schedule: Q01DX009 (ip), vehicle: Klucel (hydroxypropylcellulose) (HPC) 119 % of control | dose: 4.0 mg/kg/injection, schedule: Q01DX009 (ip), vehicle: Klucel (hydroxypropylcellulose) (HPC) 114 % of control | dose: 8.0 mg/kg/injection, schedule: Q01DX009 (ip), vehicle: Klucel (hydroxypropylcellulose) (HPC) 113 % of control | dose: 16.0 mg/kg/injection, schedule: Q01DX009 (ip), vehicle: Klucel (hydroxypropylcellulose) (HPC) 111 % of control | dose: 32.0 mg/kg/injection, schedule: Q01DX009 (ip), vehicle: Klucel (hydroxypropylcellulose) (HPC) 120 % of control

C[N+](C)(C)C.[CH-]1CCCCC1.[CH-]1CCCCC1.[CH-]1CCCCC1.[Cl-].[Cl-].[Sn+4]
inactive: dose: 3.12 mg/kg/injection, schedule: Q01DX005 (ip), vehicle: saline with Tween-80 108 % of control | dose: 6.25 mg/kg/injection, schedule: Q01DX005 (ip), vehicle: saline with Tween-80 101 % of control

O=[N+]([O-])c1ccc(S(=O)(=O)Nc2ccc(-c3ccccc3)cc2)cc1
inactive: dose: 100.0 mg/kg/injection, schedule: Q01DX009 (ip), vehicle: other 105 % of control | dose: 200.0 mg/kg/injection, schedule: Q01DX009 (ip), vehicle: other 100 % of control | dose: 400.0 mg/kg/injection, schedule: Q01DX009 (ip), vehicle: other 100 % of control
